# Experimental data reported in patent publication US7256252B1, “Methods for detecting cell apoptosis” (Cephalon, Inc., priority 1996, dated 2007).
# Columns and labels:
# HL60 cells = assay: Etoposide-triggered apoptotic proteolysis in HL60 cells (immunoblot); type: cell-based, human; details: 17 micromolar etoposide, 2 or 4 hours
# Description: HL60 cells (obtained from the American Type Culture Collection, Rockville, Md.) were cultured using published techniques (Collins et al., Nature, 270:347-349 (1977), incorporated herein by reference). Cultures of cells were incubated with either 17 micromolar etoposide (from a 1000× stock solution made in dimethylsulfoxide) to trigger apoptosis or a vehicle. After either 2 or 4 hours, cells were lysed in ice cold 25 millimolar (mM) HEPES (pH 7.5), 5 mM MgCl2, 0.1% Triton X-100 and a cocktail of protease inhibitors (1 mM EGTA, 10 micrograms per ml of aprotinin, 10 micrograms per ml of leupeptin, 7 micrograms per ml of pepstatin A, 1 mM phenylmethylsulfonylfluoride (PMSF). The resulting cell lysates were subjected to SDS-polyacrylamide gel electrophoresis on 4-20% Tris-glycine gradient gels, and the separated proteins transferred to nitrocellulose membranes by Western blotting. The blots were immunostained with Ab127 ( 1/5,000) followed by incubation with alkaline phosphatase conjugated goat anti-rabbit IgG (Bio-Rad, Burlingame, Calif.) and visualized as described previously (Roberts-Lewis et al., J. Neurosci. 14:3934-3944 (1994), incorporated herein by reference).
# Hippocampal neurons = type: cell-based; details: hippocampal neurons in primary culture, 3-nitropropionic acid applied
# From the text: Similar results were obtained with other cells. Hippocampal neurons grown in primary culture were stimulated to die by application of the neurotoxic metabolic poison 3-nitropropionic acid.
SMILES,level of about 30 kDa immunoreactive polypeptide (HL60 cells),apoptotic neurons by Hoechst 33258 nuclear stain (Hippocampal neurons)
COc1cc([C@@H]2c3cc4c(cc3[C@@H](O[C@@H]3O[C@@H]5CO[C@@H](C)O[C@H]5[C@H](O)[C@H]3O)[C@H]3COC(=O)[C@H]23)OCO4)cc(OC)c1O [etoposide],increased with increasing time of cell exposure,–
O=C(O)CC[N+](=O)[O-] [3-nitropropionic acid],–,presence of apoptotic neurons
